How the values were obtained:
[1] = about 1 atmosphere and about 60° F.; cited from earlier work
[2] = Flammability modeling (CAFT) and experimental flammability testing of isoprene; type: physicochemical
Description: Thus, computer modeling and experimental testing were used to determine the flammability limits of isoprene (such as isoprene in the presence of O2, N2, CO2, or any combination of two or more of the foregoing gases) in order to ensure process safety. The flammability envelope is characterized by the lower flammability limit (LFL), the upper flammability limit (UFL), the limiting oxygen concentration (LOC), and the limiting temperature. For a system to be flammable, a minimum amount of fuel (such as isoprene) must be in the presence of a minimum amount of oxidant, typically oxygen. The LFL is the minimum amount of isoprene that must be present to sustain burning, while the UFL is the maximum amount of isoprene that can be present. Above this limit, the mixture is fuel rich and the fraction of oxygen is too low to have a flammable mixture. The LOC indicates the minimum fraction of oxygen that must also be present to have a flammable mixture. The limiting temperature is based on the flash point of isoprene and is that lowest temperature at which combustion of isoprene can propagate. […]
The LOC was determined to be 9.5 vol % for an isoprene, O2, N2, and CO2 mixture at 40° C. and 1 atmosphere. […]
Calculated adiabatic flame temperatures (CAFT) along with a selected limit flame temperature for combustion propagation were used to determine the flammability envelope for isoprene. […]

Escherichia coli BL21 = test: Growth inhibition of Escherichia coli BL21 expressing MVK, PMK, MDD and fed MVA; type: cell-based; conditions: 5.8 mM MVA
Method: FIG. 145 is a graph of growth curves for cultures of BL21 expressing MVK, circles; MVK+PMV, triangles; MVK+PMV+MDD, squares. Cultures were either fed 5.8 mM MVA, filled symbols, or grown without addition of MVA, open symbols. Y-axis is OD600. Samples were taken for analysis at times indicated by the arrow. Numbers above the arrows correspond to E. coli BL21 cells bearing pTrcK, representing a plasmid expressing MVK (#5), pTrcKK representing a plasmid expressing MVK plus PMK (#7), and pTrcKKD, representing a plasmid expressing MVK plus PMK plus MDD (#6) were grown.
The purpose of this experiment was to determine the effect of the expression of the proteins mevalonate kinase (MVK), phophomevalonate kinase (PMK), and diphosphomevalonate decarboxylase (MDD) of Escherichia coli cultures.
E. coli BL21 cells bearing pTrcK, representing a plasmid expressing MVK, pTrcKK representing a plasmid expressing MVK plus PMK, and pTrcKKD, representing a plasmid expressing MVK plus PMK plus MDD were grown at approximately 30° C. and 250 rpm in 250 mL flasks containing 25 mL of TM3 medium (13.6 g K2PO4, 13.6 g KH2PO4, 2.0 g MgSO4*7H2O) supplemented with 1% glucose and 0.8 g/L Biospringer yeast extract (1% Yeast extract final). When OD600 reached 0.8 to 0.9, 5.8 mM mevalonic acid was added to the cultures and incubation was continues for an additional 5 hours. OD600 measurements were taken, and the cultures were sampled for metabolite analysis at 2 hours post MVA addition. Samples were collected into 100% MeOH prechilled in dry ice in a ratio of 1:1. Samples were stored at −80° C. until analyzed as follows. The methanol-quenched cells were pelleted by centrifugation and the resulting supernatant was loaded onto Strata-X-AW anion exchange column (Phenomenex) containing 30 mg of sorbent. The pellet was reextracted twice with several milliliters of 50%, v/v, aqueous methanol containing 20% ammonium bicarbonate buffer (pH=8.0) and then with 75%, v/v, aqueous bicarbonate-buffered methanol. […]

SMILES: CCO [ethanol]
- LFL [1]: about 3.3 vol %
- LOC [1]: about 8.7 vol %

SMILES: C=CC(=C)C [isoprene, 2-methyl-1,3-butadiene]
- limiting oxygen concentration (LOC) ([2]; isoprene, O2, N2, and CO2 mixture at 40° C. and 1 atmosphere): 9.5 vol %
- limiting temperature ([2]; lowest temperature at which combustion of isoprene can propagate): about −54 °C

SMILES: C[C@@](O)(CCO)CC(=O)O [MVA, mevalonic acid]
- growth (OD600) (Escherichia coli BL21; BL21 pTrcK, MVK only (strain #5)): No growth inhibition was observed
- growth (OD600) (Escherichia coli BL21; BL21 pTrcKK, MVK plus PMK (strain #7)): inhibition of growth was evident
- growth (OD600) (Escherichia coli BL21; BL21 pTrcKKD, MVK plus PMK plus MDD (strain #6)): additional inhibition is observed

— patent US20100184178A1, “INCREASED ISOPRENE PRODUCTION USING MEVALONATE KINASE AND ISOPRENE SYNTHASE” (priority 2008, published 2010)
